target: Leukotriene B4 receptor 1 (Cavia porcellus); experiment: Binding affinity towards LTB4 receptor guinea pig spleen cells using [3H]LTB4 as radioligand

Structure (SMILES) | Ki [nM]
CCCc1c(OCCCOc2cc(O)c(-c3ccc(F)cc3)cc2CC)cccc1C(=O)c1ccccc1C(=O)O [2-{3-[3-(5-Ethyl-4'-fluoro-2-hydroxy-biphenyl-4-yloxy)-propoxy]-2-propyl-benzoyl}-benzoic acid] | 33
CCCc1c(OCCCOc2cc(O)c(-c3ccc(F)cc3)cc2CC)cccc1Sc1ccccc1C(=O)O [2-{3-[3-(5-Ethyl-4'-fluoro-2-hydroxy-biphenyl-4-yloxy)-propoxy]-2-propyl-phenylsulfanyl}-benzoic acid] | 42
CCCc1c(OCCCOc2cc(O)c(-c3ccc(F)cc3)cc2CC)cccc1[S+]([O-])c1ccccc1C(=O)O (stereo not drawn) [2-{3-[3-(5-Ethyl-4'-fluoro-2-hydroxy-biphenyl-4-yloxy)-propoxy]-2-propyl-benzenesulfinyl}-benzoic acid] | 5.9

From BindingDB's records for doi:10.1021/jm00022a006 (Eli Lilly, 1995)
